Laboratory results taken from patent publication US7732430B2, “Drug delivery system comprising a tetrahydroxilated estrogen for use in hormonal contraception” (Pantarhei Bioscience B.V., priority 2001, dated 2010).
Read-outs that look alike come from different tables or passages of the source.

Experiments:
[1] = target: T1, human sex Hormone Binding Globulin (SHBG) (Homo sapiens, UniProt P04278); assay: Competitive steroid-binding assay for human SHBG; conditions: for relative binding affinity for human SHBG: rank order ethinylestradiol < 17β-estradiol < testosterone < 5α-dihydrotestosterone
T1 construct: Human SHBG was purified from transgenic mouse serum; made in house; host or cells: transgenic mouse (serum)
T1 sequence (P04278 30-402): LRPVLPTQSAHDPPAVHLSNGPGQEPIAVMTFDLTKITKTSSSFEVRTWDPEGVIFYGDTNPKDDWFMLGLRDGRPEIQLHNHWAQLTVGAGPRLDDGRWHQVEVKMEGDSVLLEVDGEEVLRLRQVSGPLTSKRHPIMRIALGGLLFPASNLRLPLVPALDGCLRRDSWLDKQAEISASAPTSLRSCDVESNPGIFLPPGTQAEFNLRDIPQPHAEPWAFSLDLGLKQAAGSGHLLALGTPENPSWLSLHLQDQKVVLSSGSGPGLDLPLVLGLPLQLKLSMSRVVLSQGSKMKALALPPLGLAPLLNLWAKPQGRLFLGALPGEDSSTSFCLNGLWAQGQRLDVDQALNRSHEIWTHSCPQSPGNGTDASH
Protocol: Human SHBG was treated for 30 min at room temperature with a dextran-coated charcoal (DCC) suspension in phosphate buffered saline (PBS) to remove any steroid ligand. After centrifugation (2,000×g for 10 min) to sediment the DCC, the supernatant containing the human SHBG was diluted in PBS to a concentration of 1 nM based on its steroid binding capacity.
The average amounts of [^3H]labeled ligands bound to SHBG at each concentration of competitor (B) were expressed as a percentage of the average amounts of [^3H]labeled ligands bound to SHBG in the absence of competitor (B0), and were plotted against the concentration of competitor in each assay tube.

four-day cyclic rats = assay: Antiovulatory bioassay after oral administration; format: in vivo, rat; conditions: for ED50: Rattus norvegicus, 96 h
Protocol: A bioassay method (modified according to De Visser et al., 1984, Arzneim. […].
Rats are spontaneously ovulating, polyestrous mammals. Generally, proestrus lasts for 12 to 14 hours, estrus for 25 to 27 hours, metestrus for 6 to 8 hours, and diestrus for 55 to 57 hours (Freeman, 1988, In: The Physiology of Reproduction, E Knobil and J Neill (eds). Raven Press, Ltd, New York, pp. 1893-1928). These stages of the estrous cycle can be classified based on the cell types present in daily vaginal smears (Schwartz, 1969, Recent Prog. Horm. Res. 25, 1-55).
The preovulatory period of the rat estrous cycle is characterized by ovarian follicular growth and enhanced estrogen secretion. In the four-day cyclic rat, peripheral plasma levels of E2 are basal through estrus. At the end of metestrus and extending through early diestrus, plasma levels of E2 begin to rise. This increase continues through diestrus and early proestrus to reach peak values and plateau by mid-proestrus. Subsequently, E2 levels fall rapidly, reaching basal values by the early morning hours of estrus. The rising estrogen levels from late metestrus to early proestrus exert a positive feedback effect on the hypothalamic-pituitary axis resulting in a luteinizing hormone (LH) surge on the afternoon of proestrus. The LH surge induces follicular rupture and the release of ova in the early morning hours of estrus. By early afternoon on the day of estrus, ova are present in the ampulla of the oviduct and are readily visualized under a dissecting microscope.
Progesterone or levonorgestrel administered subcutaneously on diestrus to four-day cyclic rats is known to inhibit ovulation and increased the estrous cycle length in a dose-dependent manner (Beattie and Corbin, 1975, Endocrinology 97, 885-890). It was shown that the progestational block of ovulation takes place predominately via the hypothalamic-pituitary axis.
Vaginal smears from female rats were obtained daily for two weeks to identify four-day cycling rats. Only four-day cyclic rats were used for the antiovulatory bioassay. […] Twice daily dosing continued for an additional 3 consecutive days. One day after the final dose (day 5), the rats were euthanized by CO2 asphyxiation at approximately 1 pm, and the number of ova per oviduct was determined and recorded. Group means were calculated for the number of ova per ovulated rat (both oviducts). The ratio of rats ovulating for each treatment group was compared to the ratio for the vehicle-treated rats.

immature rat uterus = conditions: subcutaneous, cited from earlier work
[2] = target: T2, rat uterine cytosol estrogen receptor (Rattus norvegicus, UniProt P06211); conditions: cited from earlier work
T2 construct: rat uterine cytosol estrogen receptor; host or cells: rat uterus (cytosol and nuclear fractions)
T2 sequence (P06211 1-600): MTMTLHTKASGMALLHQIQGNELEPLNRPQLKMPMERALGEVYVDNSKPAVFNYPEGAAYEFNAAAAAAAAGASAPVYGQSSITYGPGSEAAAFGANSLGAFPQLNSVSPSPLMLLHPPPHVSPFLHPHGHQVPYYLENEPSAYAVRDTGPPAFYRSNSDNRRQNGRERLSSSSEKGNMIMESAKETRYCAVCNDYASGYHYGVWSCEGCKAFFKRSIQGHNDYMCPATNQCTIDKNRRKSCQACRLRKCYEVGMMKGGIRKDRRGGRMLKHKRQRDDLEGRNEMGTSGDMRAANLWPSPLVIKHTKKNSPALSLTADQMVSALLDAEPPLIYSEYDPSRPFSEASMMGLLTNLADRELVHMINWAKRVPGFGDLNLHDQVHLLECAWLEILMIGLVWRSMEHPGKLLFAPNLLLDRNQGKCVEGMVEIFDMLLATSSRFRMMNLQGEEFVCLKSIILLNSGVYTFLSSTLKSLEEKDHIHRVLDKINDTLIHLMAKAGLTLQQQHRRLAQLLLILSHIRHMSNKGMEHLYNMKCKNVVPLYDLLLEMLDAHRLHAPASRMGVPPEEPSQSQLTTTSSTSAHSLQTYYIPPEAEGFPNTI

[3] = target: T3, estrogen receptors in the human endometrium (Homo sapiens, UniProt P03372); conditions: Tseng et al. 1978; cited from earlier work
T3 construct: estrogen receptors in the human endometrium; host or cells: human endometrium (nuclei)
T3 sequence (P03372 1-595): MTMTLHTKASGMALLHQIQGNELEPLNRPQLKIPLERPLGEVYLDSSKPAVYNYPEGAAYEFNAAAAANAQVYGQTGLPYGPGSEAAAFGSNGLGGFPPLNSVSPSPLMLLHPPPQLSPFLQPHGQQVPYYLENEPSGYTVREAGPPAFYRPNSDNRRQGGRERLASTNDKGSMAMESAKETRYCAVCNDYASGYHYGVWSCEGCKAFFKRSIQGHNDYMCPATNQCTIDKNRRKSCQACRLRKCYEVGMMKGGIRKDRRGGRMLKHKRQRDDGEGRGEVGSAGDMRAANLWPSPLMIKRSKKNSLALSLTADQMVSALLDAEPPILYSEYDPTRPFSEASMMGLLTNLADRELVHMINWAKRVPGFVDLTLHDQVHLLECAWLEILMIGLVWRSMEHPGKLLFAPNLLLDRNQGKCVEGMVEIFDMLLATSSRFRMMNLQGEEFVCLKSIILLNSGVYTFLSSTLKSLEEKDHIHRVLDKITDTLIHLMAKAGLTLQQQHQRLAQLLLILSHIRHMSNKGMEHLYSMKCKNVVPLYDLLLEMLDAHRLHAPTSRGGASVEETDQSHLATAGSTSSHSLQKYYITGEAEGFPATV

nonpregnant ewes = conditions: intravenously administered; cited from earlier work
[4] = system: ovariectomized adult rats; assay: Vaginal cornification bioassay after oral administration; format: in vivo, rat; conditions: 0.1 and 0.3 mg/kg/day po
Excerpt: Uterine weight increase in the rat is more commonly used as a measure of estrogenicity. […] In the early 1920s it was discovered that follicular fluid from the pig ovary contained a factor(s) that caused cornification/keratinization of the vaginal epithelium in the rat (Allen and Doisy, 1923, JAMA, 81, 819-821; Allen and Doisy, 1924, Am. J. Physiol., 69, 577-588). The so-called vaginal cornification response in rats subsequently provided a bioassay for testing estrogenicity. Vaginal epithelial cornification/keratinization in ovariectomized rats can be produced only by compounds considered to be true estrogens (Jones et al, 1973, Fert. Steril. 24, 284-291). […] Adult intact female CD rats were ovariectomized to induce estrogen deficiency. […] Castrate vaginal smears are indicative that complete ovariectomy was achieved. Treatment commenced following completion of the 7 days of smearing (day 0=first day of dosing). Animals were dosed, once daily for 7 consecutive days. Daily vaginal lavages continued to be obtained for 7 days after dosing was initiated in order to detect vaginal cornification, as an indication of an estrogenic response. A drop of vaginal washings was placed on a glass slide and examined by light microscopy to detect the presence or absence of cornified epithelial cells. Vaginal lavages were obtained prior to dosing on days 0-6 and prior to necropsy on day 7. […]

[5] = intravenous, two adult women, tritium labeled; cited from earlier work
[6] = system: human breast cancer cells (MCF-7); conditions: MCF-7, long term tissue culture; cited from earlier work
[7] = target: T4, rat uterine nuclear estrogen receptor (Rattus norvegicus, UniProt P06211); conditions: cited from earlier work
T4 construct: rat uterine cytosol estrogen receptor; host or cells: rat uterus (cytosol and nuclear fractions)
T4 sequence (P06211 1-600): T2 sequence (P06211 1-600)

[8] = 30 μg/kg po twice daily for 4 days
[9] = 100 μg/kg po twice daily for 4 days
[10] = 300 μg/kg po twice daily for 4 days
[11] = 1000 μg/kg po twice daily for 4 days
[12] = 3000 μg/kg po twice daily for 4 days

SMILES	relative binding affinity for human SHBG [1]	ovulation blocked (rats of 8) (four-day cyclic rats; [8])	ovulation blocked (rats of 8) (four-day cyclic rats; [9])	ovulation blocked (rats of 8) (four-day cyclic rats; [10])	ovulation blocked (rats of 8) (four-day cyclic rats; [11])	ovulation blocked (rats of 8) (four-day cyclic rats; [12])	ED50 (four-day cyclic rats; po twice daily for 4 days) [mg/kg]	other results
C[C@]12CCC(=O)C[C@@H]1CC[C@@H]1[C@@H]2CC[C@]2(C)[C@@H](O)CC[C@@H]12 [5α-dihydrotestosterone, reference compound]	in this order, show an increased relative binding affinity							
C[C@]12CC[C@@H]3c4ccc(O)cc4CC[C@H]3[C@@H]1CC[C@@H]2O [E2, 17β-estradiol, reference compound]		ineffective in inhibiting ovulation	7 of 8	8 of 8	8 of 8	8 of 8	0.03 to 0.1	
C#C[C@]1(O)CC[C@H]2[C@@H]3CCc4cc(O)ccc4[C@H]3CC[C@@]21C [EE, 17α-ethinyl estradiol, reference compound]							0.01	
C[C@]12CC[C@@H]3c4ccc(O)cc4CC[C@H]3[C@@H]1[C@@H](O)[C@@H](O)[C@@H]2O [estetrol, 1,3,5(10)-estratrien-3,15α,16α,17β-tetrol]	negligible	failed to inhibit ovulation	2 of 8	5 of 8	7 of 8	8 of 8	0.182	binding to human SHBG ([1]; [3H]DHT as labeled ligand): does not bind at all; binding to human SHBG ([1]; [3H]estradiol as labeled ligand): does not bind at all; uterotrophic activity (immature rat uterus; Holinka et al. 1979): very weak uterotrophic activity; uterotrophic activity (immature rat uterus; Holinka et al. 1980): very weak uterotrophic activity; antiovulatory potency compared with E2 (four-day cyclic rats; po twice daily for 4 days): approximates the antiovulatory potency of E2; antiovulatory potency, times less potent than ethinylestradiol (four-day cyclic rats; po twice daily for 4 days): 18 times; relative binding affinity, 17β-estradiol = 100% [2]: 0.5%; relative binding, % of 17β-estradiol [3]: 1.5%; potency in uterine vasodilation, times less potent than estriol and 17β-estradiol (nonpregnant ewes): 15 to 30 times; onset of vaginal cornification (animals responding at days 1-3) [4]: as fast as in EE-treated animals; excretion [5]: rapidly and completely excreted in urine as the glucosiduronate; metabolism [5]: virtually no metabolism except for conjugation; agonistic potency relative to 17β-estradiol in cell proliferation [6]: 2%; relative binding affinity, 17β-estradiol = 100% [7]: 0.3%
C[C@]12CC[C@H]3[C@@H](CCC4=CC(=O)CC[C@@]43C)[C@@H]1CC[C@@H]2O [testosterone, reference compound]	in this order, show an increased relative binding affinity							
